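Interpolation was linear, between the two tested concentrations surrounding the appropriate level; five concentrations were tested over 48 hours in 96-well plates. GI50: concentration for 50% inhibition of growth. Definition used: TGI = concentration required for complete inhibition of growth.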
What was measured:
Test in all cases: NCI tumour cell line growth inhibition, 48 h
BT-549 breast = test system: BT-549 breast
SF-539 CNS = test system: SF-539 CNS
A549 NSCLC = test system: A549 NSCLC
HOP-92 NSCLC = test system: HOP-92 NSCLC
OVCAR-3 ovarian = test system: OVCAR-3 ovarian
IGROV1 ovarian = test system: IGROV1 ovarian
EKVX NSCLC = test system: EKVX NSCLC
COLO 205 colon = test system: COLO 205 colon
RPMI-8226 leukemia = test system: RPMI-8226 leukemia
UACC-257 melanoma = test system: UACC-257 melanoma

Row | SMILES | TGI (BT-549 breast) [µM] | TGI (SF-539 CNS) [µM] | TGI (A549 NSCLC) [µM] | TGI (HOP-92 NSCLC) [µM] | TGI (OVCAR-3 ovarian) [µM] | TGI (IGROV1 ovarian) [µM] | TGI (EKVX NSCLC) [µM] | TGI (COLO 205 colon) [µM] | TGI (RPMI-8226 leukemia) [µM] | TGI (UACC-257 melanoma) [µM] | GI50 (BT-549 breast) [µM] | GI50 (SF-539 CNS) [µM] | GI50 (A549 NSCLC) [µM] | GI50 (HOP-92 NSCLC) [µM] | GI50 (OVCAR-3 ovarian) [µM] | GI50 (IGROV1 ovarian) [µM] | GI50 (EKVX NSCLC) [µM] | GI50 (COLO 205 colon) [µM] | GI50 (RPMI-8226 leukemia) [µM] | GI50 (UACC-257 melanoma) [µM]
1 | NCC(O)CNC(=O)c1ccc(-c2ccc(-c3ccc(C(=O)NCC(O)CN)cc3)o2)cc1 (centres undefined) | 88.5 | 41.6 | > 100 | 52.1 | 46.5 | > 100 | 70.3 | > 100 | > 100 | > 100 | – | – | – | – | – | – | – | – | – | –
2 | COc1ccccc1NC(=O)CC(=O)N1N=C(N2c3ccccc3Sc3ccccc32)CC1c1ccccc1 (centres undefined) | > 100 | > 100 | > 100 | > 100 | > 100 | > 100 | > 100 | > 100 | > 100 | > 100 | – | – | – | – | – | – | – | – | – | –
3 | COC(=O)c1c(O)ccc2[nH]c3c(O)c4ccccc4cc3c12 | > 100 | 60.3 | > 100 | 61.8 | 31.6 | 43.5 | 39.6 | 37.3 | 44.7 | 94.5 | – | – | – | – | – | – | – | – | – | –
4 | C=C1CC(Cn2ccc(=O)[nH]c2=O)(c2ccc(Cl)cc2)OC1=O (centres undefined) | 18 | 30.4 | 32.2 | 3.89 | 21.8 | 9.98 | 35 | 3.44 | 3.94 | 12.4 | – | – | – | – | – | – | – | – | – | –
5 | S=c1[nH]n2c(CCCCCCCCc3nnc4sc(=S)[nH]n34)nnc2s1 | > 100 | > 100 | > 100 | > 100 | > 100 | > 100 | > 100 | > 100 | > 100 | > 100 | – | – | – | – | – | – | – | – | – | –
6 | O=C1CC[C@@]2(O)[C@H]3Cc4ccc(-c5ccccc5)c5c4[C@@]2(CCN3CC2CC2)[C@H]1O5 | 31.3 | 33.5 | 43.6 | 57.4 | 33.6 | > 100 | 52.3 | 35 | 47.8 | 31.3 | – | – | – | – | – | – | – | – | – | –
7 | C/C=C1\CN(C(=O)OC(C)(C)C)C1C(=O)OC(C)(C)C (centres undefined) | > 100 | > 100 | > 100 | > 100 | > 100 | > 100 | > 100 | > 100 | > 100 | > 100 | – | – | – | – | – | – | – | – | – | –
8 | O=C(N/N=C\c1ccc(N(CCCl)CCCl)cc1[N+](=O)[O-])c1cccnc1 | > 100 | > 100 | > 100 | > 100 | > 100 | > 100 | > 100 | > 100 | > 100 | > 100 | > 100 | > 100 | > 100 | > 100 | > 100 | > 100 | > 100 | > 100 | > 100 | > 100
9 | Clc1cccc(NN=Nc2ccc(-c3nc4ccccc4s3)cc2)c1 | > 100 | > 100 | > 100 | 76.8 | > 100 | 54.5 | > 100 | > 100 | > 100 | > 100 | – | – | – | – | – | – | – | – | – | –
10 | CCCCCCCCCCCCCCC(O)C[N+](C)(CCO)CCO (centres undefined) | 10.8 | 7.21 | 34.3 | 5.76 | 12.1 | 3.14 | 42.6 | 3.19 | 5.52 | 26.7 | – | – | – | – | – | – | – | – | – | –
11 | CCOC(=O)c1nc2ccc(C(F)(F)F)cc2nc1Nc1ccc(Cl)c(Cl)c1 | > 100 | > 100 | > 100 | > 100 | > 100 | > 100 | > 100 | > 100 | > 100 | > 100 | – | – | – | – | – | – | – | – | – | –
12 | COc1cc2c(c(O)c1OC)CC1CCC(=O)N1C2c1cccc2ccccc12 (centres undefined) | 41.6 | 30.6 | > 100 | 45.7 | 44.6 | 59.3 | 54.5 | 28.9 | > 100 | 61 | – | – | – | – | – | – | – | – | – | –
13 | CC(C)(C)c1cc(OCc2nn3c(Cc4ccccc4)nnc3s2)c(Cl)cc1OCc1nn2c(Cc3ccccc3)nnc2s1 | > 100 | > 100 | > 100 | 52.9 | 60.4 | > 100 | > 100 | > 100 | > 100 | 93.1 | – | – | – | – | – | – | – | – | – | –
14 | CC(=O)Oc1c(N2CCCCC2)c(C(=O)c2ccccc2)c(O)c2ccn(N(C)C)c12 | 42.7 | 35.9 | > 100 | 88.6 | 74.7 | – | 31.2 | 33.3 | 44.8 | 31.2 | – | – | – | – | – | – | – | – | – | –
15 | O=C1C(Cl)=C(N(C(=O)c2ccccc2)C(=O)c2ccccc2)C(=O)c2ccccc21 | 21.7 | 19.6 | > 100 | 34.8 | 22.9 | > 100 | > 100 | 31 | 8.87 | 28.7 | – | – | – | – | – | – | – | – | – | –
16 | Cn1ncc2c(Cl)ncnc21 | > 100 | > 100 | > 100 | > 100 | > 100 | > 100 | > 100 | > 100 | > 100 | > 100 | – | – | – | – | – | – | – | – | – | –
17 | Nc1nc(Cl)cc(NC2(CO)CCC2)n1 | > 100 | > 100 | > 100 | > 100 | > 100 | > 100 | > 100 | > 100 | > 100 | > 100 | – | – | – | – | – | – | – | – | – | –

From PubChem BioAssay (NCI)
